This note sets out measurements from US7220758B2, “Ether substituted imidazopyridines” (3M Innovative Properties Company, priority 2002, dated 2007).

Structures can show the parent of a compound that is named as a salt.

In general, melting point refers to the temperature of the solid-liquid transition. As to `CCCc1nc2c(N)nc(C)c(C)c2n1CCCCCCS(C)(=O)=O` [Example 91, 1-[6-(Methanesulfonyl)hexyl]-6,7-dimethyl-2-propyl-1H-imidazo[4,5-c]pyridin-4-amine], the melting point lay within 157 to 158 °C.

In turn, `CCOCc1nc2c(N)nc(C)c(C)c2n1CCOCCCc1ccccc1` (as salt: hydrochloride) [Example 123, 2-Ethoxymethyl-6,7-dimethyl-1-[2-(3-phenylpropoxy)ethyl]-1H-imidazo[4,5-c]pyridin-4-amine hydrochloride] came in with a melting point of 128 to 130 °C.

In turn, `CCCc1nc2c(N)nc(C)c(C)c2n1CCCCCS(C)(=O)=O` [Example 96, 1-[5-(Methanesulfonyl)pentyl]-6,7-dimethyl-2-propyl-1H-imidazo[4,5-c]pyridin-4-amine] came in with a melting point of 145 to 146 °C.

The molecule `CCCc1nc2c(N)nc(C)c(C)c2n1CCCS(=O)(=O)c1ccccn1` [Example 98, 6,7-Dimethyl-2-propyl-1-[3-(pyridine-2-sulfonyl)propyl]-1H-imidazo[4,5-c]pyridin-4-amine] had a melting point of 172 to 173.5 °C.

With `CCCc1nc2c(N)nc(Cl)c(C)c2n1CCOCCNC(=O)c1ccccc1` [Example 125, N-{2-[2-(4-Amino-6-chloro-7-methyl-2-propyl-1H-imidazo[4,5-c]pyridin-4-yl)ethoxy]ethyl}benzamide], the melting point was 188 to 189 °C.

In the case of `CCCCN(C)C(=O)c1ccc(S(=O)(=O)CCCn2c(CCC)nc3c(N)nc(C)c(C)c32)cc1` [Example 120, 4-[3-(4-Amino-6,7-dimethyl-2-propyl-1H-imidazo[4,5-c]pyridin-1-yl)propane-1-sulfonyl]-N-butyl-N-methylbenzamide], the melting point was 127 to 129 °C.

Take `CCCc1nc2c(N)nc(C)c(C)c2n1CCCS(C)(=O)=O` [Example 90, 1-[3-(Methanesulfonyl)propyl]-6,7-dimethyl-2-propyl-1H-imidazo[4,5-c]pyridin-4-amine]: the melting point was 153.5 to 155 °C.

For `CCOCc1nc2c(N)nc(C)c(C)c2n1CCOCc1ccncc1` [Example 109, 2-(Ethoxymethyl)-6,7-dimethyl-1-[2-(pyridin-4-ylmethoxy)ethyl]-1II-imidazo[4,5-c]pyridin-4-amine], the melting point lay within 143 to 145 °C.

In turn, `CCCc1nc2c(N)ncc(Br)c2n1CCOCCN` [Example 114, 1-[2-(2-Aminoethoxy)ethyl]-7-bromo-2-propyl-1H-imidazo[4,5-c]pyridin-4-amine] gave a melting point of 114 to 117 °C.

With `CCCCNC(=O)c1ccc(S(=O)(=O)CCCn2c(CCC)nc3c(N)nc(C)c(C)c32)cc1` [Example 119, 4-[3-(4-Amino-6,7-dimethyl-2-propyl-1H-imidazo[4,5-c]pyridin-1-yl)propane-1-sulfonyl]-N-butylbenzamide], the melting point is 147 to 149 °C.

As for `CCCc1nc2c(N)nc(C)c(C)c2n1CCCCCS(=O)(=O)c1ccc(Cl)cc1Cl` [Example 95, 1-[5-(2,4-Dichlorobenzenesulfonyl)pentyl]-6,7-dimethyl-2-propyl-1H-imidazo[4,5-c]pyridin-4-amine], the melting point lay in the range of 130 to 131.5 °C.

With `CCOCc1nc2c(N)nc(C)cc2n1CCOCc1ccccc1` [Example 80, 1-[2-(Benzyloxy)ethyl]-2-(ethoxymethyl)-6-methyl-1H-imidazo[4,5-c]pyridin-4-amine], the melting point was in the range of 127 to 128 °C.

For `CCCc1nc2c(N)nc(C)c(C)c2n1CCCCCS(=O)(=O)c1ccccn1` [Example 87, 6,7-Dimethyl-2-propyl-1-[5-(pyridine-2-sulfonyl)pentyl]-1H-imidazo[4,5-c]pyridin-4-amine], the melting point is 143 to 144.5 °C.

Regarding `Cc1nc(N)c2nc(C)n(CCOCCN)c2c1C` (as salt: salt) [Example 14, 1-[2-(2-Aminoethoxy)ethyl]-2,6,7-trimethyl-1H-imidazo[4,5-c]pyridin-4-amine], the melting point was in the range of 130 to 133 °C.

`CCCc1nc2c(N)nc(C)c(C)c2n1CCCS(=O)(=O)c1ccc(C(=O)N2CCOCC2)cc1` [Example 101, {4-[3-(4-Amino-6,7-dimethyl-2-propyl-1H-imidazo[4,5-c]pyridin-1-yl)propane-1-sulfonyl]phenyl}morpholin-4-ylmethanone]: the melting point was 224 to 226 °C.

On to `CCOCc1nc2c(N)nc(C)c(C)c2n1CCOCC#Cc1ccccc1` [Example 122, 2-Ethoxymethyl-6,7-dimethyl-1-{2-[(3-phenylprop-2-ynyl)oxy]ethyl}-1H-imidazo[4,5-c]pyridin-4-amine], for which the melting point was 129 to 130 °C.

`Cc1nc(N)c2nc(C)n(CCOCCNC(=O)N3CCOCC3)c2c1C` (as salt: salt) [Example 15, N-{2-[2-(4-Amino-2,6,7-trimethyl-1H-imidazo[4,5-c]pyridin-1-yl)ethoxy]ethyl}morpholine-4-carboxamide]: the melting point is 205 to 207 °C.

The molecule `CCc1nc2c(N)nc(C)c(C)c2n1CCOCCNC(=O)N1CCOCC1` [Example 103, N-{2-[2-(4-Amino-2-ethyl-6,7-dimethyl-1H-imidazo[4,5-c]pyridin-1-yl)ethoxy]ethyl}morpholine-4-carboxamide] had a melting point of 182 to 184 °C.

As to `CCc1nc2c(N)nc(C)c(C)c2n1CCOCCNC(=O)NS(=O)(=O)c1ccccc1` [Example 108, N-[({2-[2-(4-Amino-2-ethyl-6,7-dimethyl-1H-imidazo[4,5-c]pyridin-1-yl)ethoxy]ethyl}amino)carbonyl]benzenesulfonamide], the melting point fell in the range of 201 to 203 °C.

In the case of `Cc1nc(N)c2nc(C)n(CCOCc3ccncc3)c2c1C` [Example 110, 2,6,7-Trimethyl-1-[2-(pyridin-4-ylmethoxy)ethyl]-1H-imidazo[4,5-c]pyridin-4-amine], the melting point fell in the range of 208 to 210 °C.

In the case of `CCc1nc2c(N)nc(C)c(C)c2n1CCOCCN1CCCS1(=O)=O` [Example 106, 1-{2-[2-(1,1-Dioxidoisothiazolidin-2-yl)ethoxy]ethyl}-2-ethyl-6,7-dimethyl-1H-imidazo[4,5-c]pyridin-4-amine], the melting point lay in the range of 157 to 159 °C.

The molecule `CCCc1nc2c(N)nc(Cl)c(C)c2n1CCOCCN` [Example 121, 1-[2-(2-Aminoethoxy)ethyl]-6-chloro-7-methyl-2-propyl-1H-imidazo[4,5-c]pyridin-4-amine] came in with a melting point of 158 to 161 °C.

Take `CCCc1nc2c(N)nc(C)c(C)c2n1CCOCc1ccccc1` [Example 6, 1-[2-(Benzyloxy)ethyl]-6,7-dimethyl-2-propyl-1H-imidazo[4,5-c]pyridin-4-amine]: the melting point was 99.5 to 100 °C.

`CCOCc1nc2c(N)nc(C)c(C)c2n1CCOCCCc1nccs1` [Example 82, 2-(Ethoxymethyl)-6,7-dimethyl-1-{2-[3-(1,3-thiazol-2-yl)propoxy]ethyl}-1H-imidazo[4,5-c]pyridin-4-amine]: the melting point lay in the range of 91 to 92 °C.

With `CCOCc1nc2c(N)nc(C)c(C)c2n1CCOCC#Cc1cncnc1` [Example 111, 2-(Ethoxymethyl)-6,7-dimethyl-1-{2-[(3-pyrimidin-5-ylprop-2-ynyl)oxy]ethyl}-1H-imidazo[4,5-c]pyridin-4-amine], the melting point lay within 122 to 124 °C.

`Cc1nc(N)c2nc(C)n(CCOCc3ccccc3)c2c1C` [Example 5, 1-[2-(Benzyloxy)ethyl]-2,6,7-trimethyl-1H-imidazo[4,5-c]pyridin-4-amine] came in with a melting point of 136.8 to 137.5 °C.

Turning to `CCCc1nc2c(N)nc(C)c(C)c2n1CCCS(=O)(=O)c1ccc(Cl)cc1`, the melting point was in the range of 186.5 to 188 °C.

In turn, `Cc1nc(N)c2nc(C)n(CCCCCS(C)(=O)=O)c2c1C` [Example 78, 1-[5-(Methanesulfonyl)pentyl]-2,6,7-trimethyl-1H-imidazo[4,5-c]pyridin-4-amine] registered a melting point of 199 to 200 °C.

As to `CCCc1nc2c(N)nc(C)c(C)c2n1CCCS(=O)(=O)c1ccc(C(=O)O)cc1` (as salt: hydrochloride) [Example 100, 4-[3-(4-Amino-6,7-dimethyl-2-propyl-1II-imidazo[4,5-c]pyridin-1-yl)propane-1-sulfonyl]benzoic acid hydrochloride], the melting point was more than 250 °C.

The molecule `Cc1nc(N)c2ncn(CCOc3ccccc3)c2c1C` [Example 1, 6,7-Dimethyl-1-(2-phenoxyethyl)-1H-imidazo[4,5-c]pyridin-4-amine] had a melting point of 197 to 199 °C.

For the molecule `Cc1nc(N)c2nc(C)n(CCOCCNC(=O)C(C)C)c2c1C` (as salt: salt) [Example 16, N-{2-[2-(4-Amino-2,6,7-trimethyl-1H-imidazo[4,5-c]pyridin-1-yl)ethoxy]ethyl}-2-methylpropanamide], the melting point lay in the range of 179.5 to 182 °C.

The molecule `Cc1nc(N)c2ncn(CCOCc3ccncc3)c2c1C` [Example 84, 6,7-Dimethyl-1-[2-(pyridin-4-ylmethoxy)ethyl]-1H-imidazo[4,5-c]pyridin-4-amine] displayed a melting point of 195 to 196 °C.

Molecule `CCCc1nc2c(N)nc(C)c(C)c2n1CCCCCS(=O)(=O)c1ccccc1` gave a melting point of 134 to 136 °C.

Regarding `CCc1nc2c(N)nc(C)c(C)c2n1CCOCCNS(C)(=O)=O` [Example 102, N-{2-[2-(4-Amino-2-ethyl-6,7-dimethyl-1H-imidazo[4,5-c]pyridin-1-yl)ethoxy]ethyl}methanesulfonamide], the melting point lay in the range of 145 to 147 °C.

`CCCCc1nc2c(N)nc(C)c(C)c2n1CCOc1ccccc1` [Example 3, 2-Butyl-6,7-dimethyl-1-(2-phenoxyethyl)-1H-imidazo[4,5-c]pyridin-4-amine] had a melting point of 130 to 132 °C.

`CCCc1nc2c(N)ncc(Br)c2n1CCOCCNS(C)(=O)=O` [Example 113, N-{2-[2-(4-Amino-7-bromo-2-propyl-1H-imidazo[4,5-c]pyridin-1-yl)ethoxy]ethyl}methanesulfonamide] returned a melting point of 129 to 131 °C.

Take `CCOCc1nc2c(N)nc(C)c(C)c2n1CCOCCCc1cccnc1` [Example 11, 2-(Ethoxymethyl)-6,7-dimethyl-1-[2-(3-pyridin-3-ylpropoxy)ethyl]-1H-imidazo[4,5-c]pyridin-4-amine]: the melting point was in the range of 78 to 78.5 °C.

On to `Cc1nc(N)c2nc(C)n(CCOc3ccccc3)c2c1C` [Example 2, 2,6,7-Trimethyl-1-(2-phenoxyethyl)-1H-imidazo[4,5-c]pyridin-4-amine], for which the melting point is 176 to 177 °C.
